{"source": "patent US12679851B2", "about": "“Methyl-substituted benzobisoxazole compound and use thereof” (TONGHUA DONGBAO PHARMACEUTICAL CO., LTD., priority 2020, dated 2026)", "key": {"GLP-1 receptor": {"target": "GLP-1 receptor (Homo sapiens, UniProt P43220)", "sequence (P43220 24-463)": "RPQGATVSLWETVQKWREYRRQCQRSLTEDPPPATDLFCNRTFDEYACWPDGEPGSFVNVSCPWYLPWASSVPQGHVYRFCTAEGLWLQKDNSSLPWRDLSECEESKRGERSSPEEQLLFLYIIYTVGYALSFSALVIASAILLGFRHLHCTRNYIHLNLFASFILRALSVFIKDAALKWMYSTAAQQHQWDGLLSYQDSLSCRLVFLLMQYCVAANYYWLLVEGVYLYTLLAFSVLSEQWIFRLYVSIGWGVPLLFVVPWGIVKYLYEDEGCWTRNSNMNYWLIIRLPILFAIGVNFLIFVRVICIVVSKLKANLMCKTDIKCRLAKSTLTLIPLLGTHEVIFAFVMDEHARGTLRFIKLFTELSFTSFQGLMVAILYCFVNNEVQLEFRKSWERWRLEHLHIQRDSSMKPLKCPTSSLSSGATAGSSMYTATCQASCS", "assay": "Cell activity test in vitro (cAMP detection, GLP-1 HEK293 cells)", "type": "cell-based", "details": "HEK293 host cell", "method": "The cells were constructed by Wuxi New Drug Development Co., Ltd. Shanghai.\nThe compound was formulated with DMSO to a working concentration of 30 μM. In this test, the usage amount of each sample was 5 μL.\nThe pH was adjusted to 7.4 and the volume was fixed to 25 mL with HBSS 1×.\nPreparation of cAMP detection reagent: 250 μL of cAMP-D2 and 250 μL of anti-cAMP cryptate reagent were added to 4 mL of lysis buffer, and mixed gently.\nThe test compound was diluted 3 times by 10 points with a starting concentration of 30 μM, and the dilutions were completed by Bravo.\nThe reference compound exenatide was diluted 3 times by 10 points with a starting concentration of 500 nM, and the dilutions were completed by Bravo.\n• 1) 100 nL of compound was transferred to OptiPlate-384 plate using Echo. • 2) OptiPlate-384 plate was centrifuged at 1000 rpm for 5 seconds. c) Preparation of cell suspension • 1) A GLP-1 cell cryopreservation tube was quickly thawed in 37° C. warm water. • 2) The cell suspension was transferred to a Transfer 15 mL of centrifuge tube and gently rinsed with 10 mL of HBSS. • 3) The centrifuge tube was centrifuged at 1000 rpm at room temperature for 1 minute. • 4) The supernatant was discarded. • 5) The cells at the bottom were gently dispersed and gently rinsed with 10 mL of HBSS, then the cells were centrifuged for sedimentation, and finally the cells were re-suspended in experimental buffer. • 6) Cell density and activity were measured by using Vi-cell. • 7) The concentration of GLP-1 cells was diluted to 2.0*10^5/mL with the experimental buffer. • 8) […] of diluted cell suspension was transferred into OptiPlate-384 plate. • 9) The cells were incubated at room temperature for 30 minutes. d) Addition of detection reagents: • 1) 10 μL of 800 nM gradient diluted cAMP standard was added to the empty well of OptiPlate-384 plate. • 2) 10 μL of cAMP detection reagent was added. • 3) OptiPlate-384 plate was covered with TopSeal-A film and incubated for 60 min at room temperature.\nThe TopSeal-A was removed, and the EnVision reading was performed."}, "CYP2C19 [1]": {"target": "T1, CYP2C19 (Homo sapiens, UniProt P33261)", "T1 construct": "human liver microsomes (HLM) were used as the incubation system; from tissue; host or cells: human liver microsomes", "T1 sequence (P33261 whole entry)": "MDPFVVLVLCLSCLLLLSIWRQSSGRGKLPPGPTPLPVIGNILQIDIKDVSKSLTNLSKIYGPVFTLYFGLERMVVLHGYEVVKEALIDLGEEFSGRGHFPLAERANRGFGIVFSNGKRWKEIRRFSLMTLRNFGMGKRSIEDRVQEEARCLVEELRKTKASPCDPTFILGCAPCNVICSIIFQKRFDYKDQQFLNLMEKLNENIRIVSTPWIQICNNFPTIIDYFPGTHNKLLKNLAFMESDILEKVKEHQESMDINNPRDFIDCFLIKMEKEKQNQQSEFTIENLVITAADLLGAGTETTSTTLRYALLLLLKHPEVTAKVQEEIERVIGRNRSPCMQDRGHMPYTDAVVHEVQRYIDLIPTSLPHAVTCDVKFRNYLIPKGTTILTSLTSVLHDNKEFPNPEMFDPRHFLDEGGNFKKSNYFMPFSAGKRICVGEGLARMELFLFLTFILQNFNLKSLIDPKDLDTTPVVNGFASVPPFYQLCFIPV", "assay": "Cytochrome P450 isoenzyme time-dependent inhibition, human liver microsomes", "type": "in vitro ADME", "method": "To test the time-dependent inhibitory effect of the test compounds on the activity of human liver microsomal cytochrome P450 isoenzyme CYP2C19.\nThe experiment was divided into two groups. In the first group, human liver microsomes (HLM) were used as the incubation system, and a series of concentrations of test samples were added to the incubation system, and then coenzyme factor (NADPH) solution was added, and pre-incubated at 37° C. for 30 minutes. After pre-incubation, the probe substrate solution was added, and after incubation for a certain time, the reaction was terminated; the amount of probe substrate metabolites produced in the incubation solution was measured, and the enzyme activity was calculated. The second group of reactions was to use human liver microsomes (HLM) as the incubation system, and a series of concentrations of test samples were added to the incubation system, and then potassium phosphate buffer was added, and pre-incubated at 37° C. for 30 minutes. After pre-incubation, a mixed solution of NADPH and probe substrate was added. After incubation for a certain time, the reaction was terminated, the amount of probe substrate metabolites produced in the incubation solution was measured, and the enzyme activity was calculated.\nFirstly, the test compound (10.0 mM) was diluted in gradient to prepare a working solution (100× final concentration), and the working solution concentrations were 5.00, 1.65, 0.500, 0.165, 0.0500, 0.0165 and 0.00500 mM respectively. At the same time, the positive inhibitor of P450 isoenzyme CYP2C19, probe substrate and NADPH working solution were prepared; the human liver microsomes stored in the refrigerator below −60° C. were thawed on ice. When the human liver microsomes were completely dissolved, then diluted with potassium phosphate buffer (PB) to prepare a working solution with a certain concentration (0.169 mg/mL).\nThen 147.5 μL of human liver microsome working solution was added to the reaction plate, and the reaction plate was placed on ice for use. […]"}, "CYP2C9": {"target": "T2, CYP2C9 (Homo sapiens, UniProt P11712)", "T2 construct": "from tissue; host or cells: human liver microsomes", "T2 sequence (P11712 whole entry)": "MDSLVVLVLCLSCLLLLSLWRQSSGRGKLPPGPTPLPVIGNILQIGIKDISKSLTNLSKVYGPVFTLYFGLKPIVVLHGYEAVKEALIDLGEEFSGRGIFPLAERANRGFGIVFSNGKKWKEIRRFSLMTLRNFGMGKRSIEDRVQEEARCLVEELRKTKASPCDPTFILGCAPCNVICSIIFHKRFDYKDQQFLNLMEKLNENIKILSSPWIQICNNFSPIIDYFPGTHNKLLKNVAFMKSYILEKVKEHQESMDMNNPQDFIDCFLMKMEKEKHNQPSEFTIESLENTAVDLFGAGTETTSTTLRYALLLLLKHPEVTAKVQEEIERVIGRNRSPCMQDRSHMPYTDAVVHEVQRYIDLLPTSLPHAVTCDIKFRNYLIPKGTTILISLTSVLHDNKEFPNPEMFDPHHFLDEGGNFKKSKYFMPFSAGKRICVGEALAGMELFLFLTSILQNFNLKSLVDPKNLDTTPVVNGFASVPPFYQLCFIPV", "assay": "Cytochrome P450 isoenzyme inhibition, human liver microsomes", "type": "in vitro ADME", "method": "(§1) To test the inhibitory effects of the test compounds on the activities of human liver microsomal cytochrome P450 isoenzymes (CYP1A2, CYP2C9, CYP2C19, CYP2D6 and CYP3A4).\n(§2) Firstly, the test compound (10.0 mM) was diluted in gradient to prepare a working solution (100× final concentration), and the working solution concentrations were 5.00, 1.50, 0.500, 0.150, 0.0500, 0.0150 and 0.00500 mM respectively. At the same time, the working solution of each positive inhibitor and its specific substrate mixture of P450 isoenzymes (CYP1A2, CYP2C9, CYP2C19, CYP2D6 and CYP3A4) was prepared; the human liver microsomes stored in the refrigerator below −60° C. were thawed on ice. When the human liver microsomes were completely dissolved, then diluted with potassium phosphate buffer (PB) to prepare a working solution with a certain concentration (0.253 mg/mL).\n(§3) Firstly, 20.0 μL of substrate mixture was added to the reaction plate (20.0 μL of PB was added to the blank well), then 158 μL of human liver microsome working solution was added to the reaction plate, and the reaction plate was placed on ice for later use. At this time, 2.00 μL of test compound (N=1) and specific inhibitor (N=2) of each concentration were added to the corresponding well, and the group without inhibitor (test compound or positive inhibitor) was added with the corresponding organic solvent as a of control sample (control sample of test compound was dimethyl sulfoxide:methanol=1:1, positive control samples were all dimethyl sulfoxide:methanol=1:9). After pre-incubation in 37° C. water bath for 10 minutes, 20.0 μL of a coenzyme factor (NADPH) solution was added to the reaction plate and incubated in 37° C. water bath for 10 minutes. Then 400 μL of pre-cooled acetonitrile solution (internal standard containing 200 ng/mL tolbutamide and labetalol) was added to stop the reaction; the reaction plate was placed in a shaker and shaken for 10 min to mix evenly. Then the reaction plate was centrifuged at 4° C. and 4000 rpm for 20 min. 200 μL of supernatant was taken and added to 100 μL of water for sample dilution. Finally, the plate was sealed, shaken for 10 minutes to mix evenly for LC/MS/MS detection."}, "CYP2D6": {"target": "T3, CYP2D6 (Homo sapiens, UniProt P10635)", "T3 construct": "from tissue; host or cells: human liver microsomes", "T3 sequence (P10635 whole entry)": "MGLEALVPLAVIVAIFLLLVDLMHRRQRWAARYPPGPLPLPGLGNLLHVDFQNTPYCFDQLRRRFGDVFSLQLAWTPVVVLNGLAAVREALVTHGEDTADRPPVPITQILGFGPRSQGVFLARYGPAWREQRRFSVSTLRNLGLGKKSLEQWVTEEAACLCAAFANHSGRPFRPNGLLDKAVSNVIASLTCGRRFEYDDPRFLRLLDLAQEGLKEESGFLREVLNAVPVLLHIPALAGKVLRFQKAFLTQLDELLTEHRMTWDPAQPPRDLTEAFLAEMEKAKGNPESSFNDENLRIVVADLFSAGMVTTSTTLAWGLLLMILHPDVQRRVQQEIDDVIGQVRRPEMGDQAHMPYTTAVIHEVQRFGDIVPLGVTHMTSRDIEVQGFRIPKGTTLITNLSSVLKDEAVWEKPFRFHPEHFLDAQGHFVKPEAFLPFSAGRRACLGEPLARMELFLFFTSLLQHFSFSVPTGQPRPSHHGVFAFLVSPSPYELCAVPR", "assay": "Cytochrome P450 isoenzyme inhibition, human liver microsomes", "type": "in vitro ADME", "method": "as §1, §2, §3"}, "CYP1A2": {"target": "T4, CYP1A2 (Homo sapiens, UniProt P05177)", "T4 construct": "from tissue; host or cells: human liver microsomes", "T4 sequence (P05177 1-516)": "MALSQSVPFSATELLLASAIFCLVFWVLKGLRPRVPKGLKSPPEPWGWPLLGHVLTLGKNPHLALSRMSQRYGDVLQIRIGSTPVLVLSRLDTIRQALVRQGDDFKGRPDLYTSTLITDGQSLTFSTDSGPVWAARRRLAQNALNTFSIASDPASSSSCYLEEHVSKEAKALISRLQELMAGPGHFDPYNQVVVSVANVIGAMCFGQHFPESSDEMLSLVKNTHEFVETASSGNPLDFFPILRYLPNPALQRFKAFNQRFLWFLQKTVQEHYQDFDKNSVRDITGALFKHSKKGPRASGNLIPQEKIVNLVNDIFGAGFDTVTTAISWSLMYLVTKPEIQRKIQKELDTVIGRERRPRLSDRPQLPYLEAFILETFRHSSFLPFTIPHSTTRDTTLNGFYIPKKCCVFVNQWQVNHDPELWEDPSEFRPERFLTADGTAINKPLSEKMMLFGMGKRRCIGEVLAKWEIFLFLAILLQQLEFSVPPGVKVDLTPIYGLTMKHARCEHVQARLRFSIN", "assay": "Cytochrome P450 isoenzyme inhibition, human liver microsomes", "type": "in vitro ADME", "method": "as §1, §2, §3"}, "CYP2C19 [2]": {"target": "T1, CYP2C19", "assay": "Cytochrome P450 isoenzyme inhibition, human liver microsomes", "type": "in vitro ADME", "method": "as §1, §2, §3"}, "CYP3A4": {"target": "T5, CYP3A4 (Homo sapiens, UniProt P08684)", "T5 construct": "from tissue; host or cells: human liver microsomes", "T5 sequence (P08684 whole entry)": "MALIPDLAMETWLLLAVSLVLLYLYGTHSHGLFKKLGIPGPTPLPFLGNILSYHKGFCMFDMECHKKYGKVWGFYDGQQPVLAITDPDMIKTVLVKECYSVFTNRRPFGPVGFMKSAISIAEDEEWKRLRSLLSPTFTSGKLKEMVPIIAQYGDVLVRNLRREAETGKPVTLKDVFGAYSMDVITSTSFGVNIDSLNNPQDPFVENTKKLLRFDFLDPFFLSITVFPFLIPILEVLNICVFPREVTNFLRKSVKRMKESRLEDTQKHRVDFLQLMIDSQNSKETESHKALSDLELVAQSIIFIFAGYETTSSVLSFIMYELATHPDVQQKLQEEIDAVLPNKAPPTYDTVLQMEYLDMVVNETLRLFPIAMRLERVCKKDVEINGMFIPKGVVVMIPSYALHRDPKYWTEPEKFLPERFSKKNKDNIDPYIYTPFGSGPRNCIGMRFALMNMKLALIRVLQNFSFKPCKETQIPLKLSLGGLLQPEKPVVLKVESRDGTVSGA", "assay": "Cytochrome P450 isoenzyme inhibition, human liver microsomes", "type": "in vitro ADME", "details": "CYP3A4-M", "method": "as §1, §2, §3"}, "[3]": {"assay": "Cynomolgus monkey in vivo DMPK study", "details": "male cynomolgus monkeys, single oral 0.5 mg/kg", "method": "Male cynomolgus monkeys were used as test animals, and the plasma concentration of the compound was determined after a single oral administration and the pharmacokinetic behavior was evaluated.\nTwo healthy male cynomolgus monkeys (fasting) were selected as the oral group. Oral vehicle was 20% hydroxypropyl-p-cyclodextrin aqueous solution. After the test compound was mixed with the vehicle, vortexed and sonicated to prepare 0.1 mg/mL approximately clear solution. The oral dosage of cynomolgus monkey was 0.5 mg/kg. After oral administration, whole blood was collected for a certain time to prepare plasma. The drug concentration was analyzed by LC-MS/MS method, and the pharmacokinetic parameters were calculated by Phoenix WinNonlin 6.3."}}}
{"smiles": "C[C@]1(c2ccc(C#N)cc2F)Oc2cccc(C3=CCN(Cc4nc5sc(C(=O)O)cc5n4C[C@@H]4CCO4)CC3)c2O1", "note": "[Compound 011A]", "values": [{"measurement": "EC50", "setting": "GLP-1 receptor", "result": 0.00033, "unit": "µM"}]}
{"smiles": "CC1(c2ccc(Cl)cc2F)Oc2cccc(N3CCN(Cc4nc5sc(C(=O)O)cc5n4CC4CCO4)CC3)c2O1", "note": "(single isomer, unassigned) [Compound 005A]", "values": [{"measurement": "EC50", "setting": "GLP-1 receptor", "result": 0.00015, "unit": "µM"}, {"measurement": "Time-dependent inhibition (Yes or No)", "setting": "CYP2C19 [1]", "result": "No"}, {"measurement": "IC50", "setting": "CYP2C19 [1]; 30 min pre-incubation with NADPH", "result": "> 50", "unit": "µM"}, {"measurement": "IC50", "setting": "CYP2C19 [1]; 30 min pre-incubation without NADPH", "result": 44.3, "unit": "µM"}, {"measurement": "IC50", "setting": "CYP2C9", "result": 30.8, "unit": "µM"}, {"measurement": "IC50", "setting": "CYP2D6", "result": "> 50", "unit": "µM"}, {"measurement": "IC50", "setting": "CYP1A2", "result": "> 50", "unit": "µM"}, {"measurement": "IC50", "setting": "CYP2C19 [2]", "result": "> 50", "unit": "µM"}, {"measurement": "IC50", "setting": "CYP3A4", "result": "> 50", "unit": "µM"}]}
{"smiles": "C[C@]1(c2ccc(C#N)cc2F)Oc2cccc(C3=CCN(Cc4nc5cc(C(=O)O)sc5n4C[C@@H]4CCO4)CC3)c2O1", "note": "[Compound 011B]", "values": [{"measurement": "EC50", "setting": "GLP-1 receptor", "result": 0.00152, "unit": "µM"}]}
{"smiles": "CC1(c2ccc(Cl)cc2F)Oc2cccc(C3CCN(Cc4nc5sc(C(=O)O)cc5n4C[C@@H]4CCO4)CC3)c2O1", "note": "(single isomer, unassigned) [Compound 004]", "values": [{"measurement": "EC50", "setting": "GLP-1 receptor", "result": 0.0002, "unit": "µM"}, {"measurement": "half-life", "setting": "[3]; cynomolgus monkey, plasma", "result": 3.94, "unit": "h"}, {"measurement": "Cmax", "setting": "[3]; cynomolgus monkey, plasma", "result": 132, "unit": "nM"}, {"measurement": "Oral DNAUC", "setting": "[3]; DNAUC = AUCPO/Dose", "result": 1056, "unit": "nM · h/mpk"}, {"measurement": "IC50", "setting": "CYP2C9", "result": 31.9, "unit": "µM"}, {"measurement": "IC50", "setting": "CYP2D6", "result": "> 50", "unit": "µM"}, {"measurement": "IC50", "setting": "CYP1A2", "result": 43.7, "unit": "µM"}, {"measurement": "IC50", "setting": "CYP2C19 [2]", "result": 23.6, "unit": "µM"}, {"measurement": "IC50", "setting": "CYP3A4", "result": 40.8, "unit": "µM"}]}
{"smiles": "CC1(c2ccc(Cl)cc2F)Oc2cccc(C3CCN(Cc4nc5sc(C(=O)O)c(F)c5n4C[C@@H]4CCO4)CC3)c2O1", "note": "(single isomer, unassigned) [Compound 006]", "values": [{"measurement": "EC50", "setting": "GLP-1 receptor", "result": 0.00039, "unit": "µM"}, {"measurement": "IC50", "setting": "CYP2C9", "result": 21.6, "unit": "µM"}, {"measurement": "IC50", "setting": "CYP2D6", "result": "> 50", "unit": "µM"}, {"measurement": "IC50", "setting": "CYP1A2", "result": 38.8, "unit": "µM"}, {"measurement": "IC50", "setting": "CYP2C19 [2]", "result": "> 50", "unit": "µM"}, {"measurement": "IC50", "setting": "CYP3A4", "result": 48.7, "unit": "µM"}]}
